From patent US4874776A, “Compound having mucus regulating and elastase-inhibitory activities, for the therapy of pulmonal emphysema and pulmonal fibrosis” (Yason S.r.l., priority 1988, dated 1989)

Key:
[1] = system: hepatic intoxication induced by carbon tetrachloride; test: Hepato-protecting activity, hepatic intoxication induced by carbon tetrachloride; format: in vivo, rat; conditions: male Wistar rats, 100 mg/kg i.p.; for GPT x ± es: 15 minutes before CCl4 0,15 ml/kg oral, 24 hours; for GPT % INHIBITION VS. CONTROLS: CCl4 0,15 ml/kg
Method: Hepato-protecting activity of YS 795 was evaluated in comparison with N-acetylcystein, by means of the test of hepatic intoxication induced by carbon tetrachloride, according to the method by Sanna et al. (Experientia, 32 (1), 91, 1976).
Male Wistar rats (268-346 g body weight) fasted for 18 hours, with water "ad libitum", were used.
YS 795 and N-acetylcystein were administered intraperitoneally at the dose of 100 mg/kg, whereas the control group received the only carrier.
15 minutes after the drug administration, the animals were treated orally with 0,15 ml/kg of carbon tetrachloride.
After 24 more hours, the animals were killed by bleeding after ether anesthesia.

[2] = system: secretion of respiratory tract; test: Bronchosecretagogue activity, sodium fluoresceine test; format: in vivo, rat; conditions: male Wistar rats, 100 mg/kg; for SODIUM FLUORESCEINE: 10 animals
Method: Bronchosecretagogue activity was evaluated by means of sodium fluoresceine test, according to the procedure by Mawatari ("Experimental studies on the expectorant action of several drugs" Kagoshima Kaigaken Igaken Zasshi 27, 561, 1976), said test consisting in determining the sodium fluoresceine amount eliminated from respiratory tract: the higher the secretion, the higher the amount of sodium fluoresceine eliminated. Accordingly, any compound increasing the secretion of respiratory tract causes an increase in sodium fluoresceine elimination, which can easily be calculated.
Male Wistar rats (100-200 g body weight), fasted for 18 hours, with water "ad libitum", were administered with YS 795 at the dose of 100 mg/kg and, by comparison, with carboxymethyl cystein at equiponderal doses, by the oral route.
30 minutes after the treatment, sodium fluoresceine was injected subcutaneously and 30 minutes after the animals were killed by bleeding. The whole respiratory tree was then withdrawn and the percentage of sodium fluoresceine present was evaluated.

[3] = Acute toxicity (LD50, Litchfield and Wilcoxon) in the rat; conditions: in vivo, read-out: DL50 (the source's name)
Method: (§1) Acute toxicity of YS 795 was calculated in the rat and the mouse after both oral and intraperitoneal administrations.
(§2) LD50 was determined according to the method of Litchfield and Wilcoxon (J. Pharmacol. Exp. Therap. 96, 99-118, 1949).

[4] = Acute toxicity (LD50, Litchfield and Wilcoxon) in the mouse; conditions: in vivo, read-out: DL50 (the source's name)
Method: as §1, §2

elastase = test: Elastase-inhibitory activity; format: biochemical
Method: Inhibition of elastase activity by YS 795 was evaluated according to the method by D. A. Hall, S. El Ridi (Methods of connective tissue research, Ioyson-Bruvvers Ltd.; Oxford--1976) and by R. M. Senior et al. (Elastine and elastic Tissue, Plenum Press, pp. 249-254, New York--1977).

[5] = system: emphysema induced by porcine pancreatic elastase; test: Emphysema induced by porcine pancreatic elastase in the hamster; format: in vivo
Method: Emphysema induced by porcine pancreatic elastase in the hamster.
Capability of YS 795 in preventing emphysema caused by instillation of elastase was studied according to the method by Stone P. J. et al. (Am. Rev. Respir. Dis.; 124/1; 1981) and by Yu et al. ("Elastin and elastic tissues"; Plenum Press; New York; 1977).
16 Hamsters weighing 100-120 g were divided in 4 groups of 4 animals each (Groups A, B, C and controls) and treated as follows:
Group A: in tratracheal instillation of 0,1 mg of porcine pancreatic elastase 1 hour after administration of 100 mg/kg of YS 795.
Group B: YS 795 was administered 1 hour after elastase instillation.
Group C: YS 795 was administered 4 hours after elastase instillation.
Controls: physiological saline was administered 1 hour after elastase instillation.
At set times (72 hours and 12 days), the animals were killed after intraperitoneal anesthesia with pentobarbital. Lungs were intubated through trachea and fixed.
Morphological and morphometrical analysis of the pulmonal sections were then carried out under a microscope.

collagenase = test: Collagenase inhibitory activity; format: biochemical; conditions: read-out: IC50 collagenase inhibition
Method: The inhibition of collagenase by means of YS 795 was evaluated according to the method by C. L. Hu, G. Crombie, C. Franzeblau (Analyt., Biochem. 88, 638, 1978).

[6] = Pharmacokinetics, plasma and tissue concentrations by gaschromatographic analysis; format: in vivo; conditions: rat
Method: Male CD-COBS rats weighing 200-220 g were used, treated with YS 795 and 4-thiazolidine-carboxylic acid by the oral or intraperitoneal route, in equimolecular amounts (YS 795=795=100 mg/kg; thiazolidine-carboxylic acid =65 mg/kg).
One hour after the treatment the animals were killed by beheading; blood was collected in heparinized test-tubes and centrifuged for 10 minutes at 3500 rpm to prepare plasma. The tissues (liver, lung, kidney and brain) were homogenized in 4 volumes of 0,05M phosphate buffer.
Tissular concentrations were studied by gaschromatographic analysis.

[7] = system: patients affected by chronic bronchitis; test: Clinical study in patients affected by chronic bronchitis (tolerability and mucus regulating activity); format: in vivo, human; conditions: 3×300 mg capsules a day
Method: YS 795 in capsules was administered to hospitalized patients affected by chronic bronchitis, in order to test tolerability and mucus regulating activity.
10 patients, 5 males and 5 females, of 65-70 years age, smokers or ex-smokers, were treated with YS 795 administered at a dose of 3×300 mg capsules a day, in the morning, at noon and in the night, with full stomach, for a period of 4 weeks.
All drugs having mucolytic, bronchodynamic, steroidal and balsamic activities were excluded during the observation period, whereas the "routine" therapy of concomitant diseases, based on administration of diuretic, hypotensive, antidiabetic, vasodilating and antibiotic drugs, was continued.
Before and after the treatment, tests were carried out to evaluate possible side-effects of YS 795 on hemopoietic, hepatic and renal functions; heart rate and arterial pressure were further checked during the treatment.

[8] = Solubility of the obtained compound; format: physicochemical

Compound: CC(=O)N[C@@H](CS)C(=O)O [N--ACETYLCYSTEIN, N-acetylcystein, reference compound]
- GPT x ± es [1]: 168,2 ± 8,68 U/L
- GPT % INHIBITION VS. CONTROLS [1]: 52,9%

Compound: NC(CSCC(=O)O)C(=O)O (stereo not drawn) [S--CARBOXYMETHYLCYSTEIN, reference compound]
- SODIUM FLUORESCEINE % Δ vs. controls [2]: 80,6%
- SODIUM FLUORESCEINE [2]: 0,56 μg/ml

Compound: CCOC(=O)N1CSCC1C(=O)O (stereo not drawn) [YS 795, N-carbethoxy-4-thiazolidine-carboxylic acid]
- LD50 ([3]; ip, female): 420 mg/kg
- LD50 ([3]; ip, male): 415 mg/kg
- LD50 ([3]; po, os, male): > 4000 mg/kg
- LD50 ([4]; ip, female): 372 mg/kg
- LD50 ([4]; ip, male): 380 mg/kg
- LD50 ([4]; po, os, male): > 4000 mg/kg
- IC50 (elastase): 11 mM
- Effect of the time of administration on the antiemphysema effect ([5]; administered 1 hour before vs. 1 or 4 hours after elastase instillation): more marked when YS 795 was administered before elastase instillation
- Antagonism of pulmonal emphysema (morphological and morphometrical analysis of pulmonal sections) ([5]; hamster, 100 mg/kg, 0,1 mg elastase intratracheal, 72 hours and 12 days): can antagonize pulmonal emphysema induced by porcine pancreatic elastase
- IC50 (collagenase): 15 mM
- SODIUM FLUORESCEINE % Δ vs. controls [2]: 70,9%
- SODIUM FLUORESCEINE [2]: 0,53 μg/ml
- GPT x ± es [1]: 220 ± 84,47 U/L
- GPT % INHIBITION VS. CONTROLS [1]: 38,4%
- Metabolism [6]: subsequently metabolized to n-thiazolidine-carboxylic acid
- Time till which the compound is still found as such [6]: 12 h
- Time of plasmatic concentration peak ([6]; after the administration): between the first and the second hour
- Drug amounts in liver and lungs in comparison with thiazolidine-carboxylic acid ([6]; equimolecular amounts (100 mg/kg vs. 65 mg/kg)): remarkanly higher
- Tissue distribution (liver, lung, kidney, brain) ([6]; found as such and as thiazolidine-carboxylic derivative): present in all the examined tissues
- Absorption ([6]; oral and intraperitoneal route, 100 mg/kg): well adsorbed by both oral and intraperitonel route
- Fluidifying and mucus regulating activities ([7]; patients with chronic bronchitis, 4 weeks): good fluidifying and mucus regulating activities
- Effects on arterial pressure and heart rate ([7]; patients, 4 weeks): no clinically significant effects
- Tolerability at gastric level ([7]; patients, 4 weeks): well tolerated
- Effect on hemopoietic, hepatic and renal functions (laboratory tests) ([7]; patients, before and after 4 weeks): does not affect hemopoietic, hepatic and renal functions
- Solubility in common organic solvents ([8]; common organic solvents): soluble in common organic solvents
- Solubility in water ([8]; water): unsoluble in water
